The source of these data is ChEMBL document CHEMBL1144607, “Novel hydroxamic acid-related phosphinates: inhibition of neutral aminopeptidase N (APN)” (Bioorg Med Chem Lett, 2007).

What is called IC50 is the concentration needed to halve the response being measured.

Assay [1] has as its target T1, Aminopeptidase N (Homo sapiens, UniProt P15144). In words: Inhibition of APN.
For assay [2], the target named is T1, Aminopeptidase N. The assay is described as follows: Inhibition of APN at <300 uM.

The source made the active and inactive calls. No cut-off for these calls is given here.

T1 sequence (P15144 whole entry): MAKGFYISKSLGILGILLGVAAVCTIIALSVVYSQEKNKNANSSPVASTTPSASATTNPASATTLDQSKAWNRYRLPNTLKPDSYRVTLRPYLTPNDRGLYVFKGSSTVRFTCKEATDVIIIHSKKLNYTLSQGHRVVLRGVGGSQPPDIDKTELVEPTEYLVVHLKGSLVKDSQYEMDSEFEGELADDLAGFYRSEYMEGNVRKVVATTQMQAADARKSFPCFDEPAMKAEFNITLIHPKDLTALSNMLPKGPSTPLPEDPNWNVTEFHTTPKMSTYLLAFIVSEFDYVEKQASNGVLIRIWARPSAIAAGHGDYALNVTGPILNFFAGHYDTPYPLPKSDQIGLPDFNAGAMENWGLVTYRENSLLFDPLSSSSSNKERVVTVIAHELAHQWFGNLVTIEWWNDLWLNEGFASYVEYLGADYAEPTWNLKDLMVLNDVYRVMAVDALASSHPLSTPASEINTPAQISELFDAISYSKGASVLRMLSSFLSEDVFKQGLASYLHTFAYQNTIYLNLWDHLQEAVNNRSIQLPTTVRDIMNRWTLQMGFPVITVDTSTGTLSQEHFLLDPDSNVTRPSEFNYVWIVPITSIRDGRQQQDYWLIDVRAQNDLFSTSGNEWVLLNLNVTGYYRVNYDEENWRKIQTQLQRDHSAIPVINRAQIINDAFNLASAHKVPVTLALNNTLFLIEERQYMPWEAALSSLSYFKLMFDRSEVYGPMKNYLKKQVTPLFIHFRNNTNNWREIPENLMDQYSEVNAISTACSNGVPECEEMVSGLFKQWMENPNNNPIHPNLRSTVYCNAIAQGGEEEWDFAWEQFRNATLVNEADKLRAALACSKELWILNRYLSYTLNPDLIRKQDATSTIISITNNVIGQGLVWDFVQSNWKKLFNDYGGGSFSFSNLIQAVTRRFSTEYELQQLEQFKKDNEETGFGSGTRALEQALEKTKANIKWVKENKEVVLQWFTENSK

Consider `CC(C)C(N)P(=O)(O)C(=O)Nc1ccccc1` (centres undefined), for which it took 160 µM to reach half-maximal inhibition on Aminopeptidase N [1] (IC50).
On the same count and under the same terms, the value for `CC(C)CC(N)P(=O)(O)C(C)N` (centres undefined) was 155 µM.
For the molecule `CCNC(=O)P(=O)(O)C(N)C(C)C` (centres undefined), at Aminopeptidase N [2], the outcome was inactive.
For `CCCCCNC(=O)P(=O)(O)C(N)Cc1ccccc1` (centres undefined), the outcome at Aminopeptidase N [2] was inactive.
